Experimental data taken from ChEMBL document CHEMBL1138012, “Parallel synthesis of acylsemicarbazide libraries: preparation of potent cyclin dependent kinase (cdk) inhibitors” (Bioorg Med Chem Lett, 2004).

Legend:
[1] = biological target: Cyclin-dependent kinase 2/cyclin E (Homo sapiens, UniProt P24941); assay: Inhibitory concentration against Cyclin dependant kinase 2-cyclinE; type: protein-complex assay
HCT-116 = assay: Inhibitory concentration against human colon cancer HCT116 cell line; type: functional, cell-based
[2] = biological target: Cyclin-dependent kinase 4/cyclin D1 (Homo sapiens, UniProt P11802); assay: Inhibitory concentration against Cyclin dependant kinase 4-cyclinD1; type: protein-complex assay
Sequence of Cyclin-dependent kinase 4/cyclin D1 (P11802 whole entry): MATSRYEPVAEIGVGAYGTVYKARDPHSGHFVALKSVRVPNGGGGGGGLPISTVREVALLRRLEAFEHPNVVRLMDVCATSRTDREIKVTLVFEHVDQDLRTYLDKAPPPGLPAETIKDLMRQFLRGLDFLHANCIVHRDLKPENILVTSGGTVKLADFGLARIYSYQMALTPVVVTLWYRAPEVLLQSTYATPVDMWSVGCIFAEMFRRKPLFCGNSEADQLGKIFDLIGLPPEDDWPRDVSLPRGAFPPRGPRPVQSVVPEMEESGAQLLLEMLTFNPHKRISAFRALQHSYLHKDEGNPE
Sequence of Cyclin-dependent kinase 4/cyclin D1 (P24385 whole entry, further chain): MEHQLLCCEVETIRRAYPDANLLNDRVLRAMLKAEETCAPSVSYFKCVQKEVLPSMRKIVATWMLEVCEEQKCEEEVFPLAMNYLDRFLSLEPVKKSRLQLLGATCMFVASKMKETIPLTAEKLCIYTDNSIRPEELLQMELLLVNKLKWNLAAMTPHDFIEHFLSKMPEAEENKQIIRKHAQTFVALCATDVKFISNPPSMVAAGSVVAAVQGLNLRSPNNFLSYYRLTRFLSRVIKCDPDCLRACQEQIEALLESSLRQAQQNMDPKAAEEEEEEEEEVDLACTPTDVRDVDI

| IC50 [1] | IC50 (HCT-116) | IC50 [2] | SMILES |
| --- | --- | --- | --- |
| 90 nM | 1200 nM | 240 nM | COc1ccc(-c2[nH]nc3c2C(=O)c2c(NC(=O)NNC(=O)C(N)=O)cccc2-3)cc1 |
| 10 nM | 190 nM | 9 nM | COc1ccc(-c2[nH]nc3c2C(=O)c2c(NC(=O)NNC(=O)c4cccnc4)cccc2-3)cc1 |
| 10 nM | 190 nM | 9 nM | COc1ccc(-c2[nH]nc3c2C(=O)c2c(NC(=O)NNC(=O)c4ccncc4)cccc2-3)cc1 |
| 10 nM | 250 nM | 10 nM | COc1ccc(-c2[nH]nc3c2C(=O)c2c(NC(=O)NNC(=O)c4ccc(O)cc4O)cccc2-3)cc1 |
| 30 nM |  | 10 nM | COc1ccc(-c2[nH]nc3c2C(=O)c2c(NC(=O)NNC(=O)c4cc(N)cc(N)c4)cccc2-3)cc1 |
| 9 nM | 80 nM | 60 nM | COc1ccc(-c2[nH]nc3c2C(=O)c2c(NC(=O)NNC(=O)c4ccccc4O)cccc2-3)cc1 |
| 10 nM |  | 5 nM | COc1ccc(-c2[nH]nc3c2C(=O)c2c(NC(=O)NNC(=O)c4ccc(O)c(O)c4)cccc2-3)cc1 |
| 30 nM |  | 20 nM | COc1ccc(-c2[nH]nc3c2C(=O)c2c(NC(=O)NNC(=O)c4cc(Cl)ccc4Cl)cccc2-3)cc1 |
| 10 nM | 80 nM | 7 nM | COc1ccc(-c2[nH]nc3c2C(=O)c2c(NC(=O)NNC(=O)c4cccc(N)c4)cccc2-3)cc1 |
| 40 nM |  | 20 nM | COc1ccc(-c2[nH]nc3c2C(=O)c2c(NC(=O)NNC(=O)c4cc(OC)cc(OC)c4)cccc2-3)cc1 |
| 10 nM | 50 nM | 8 nM | COC(=O)NNC(=O)Nc1cccc2c1C(=O)c1c-2n[nH]c1-c1ccc(OC)cc1 |
| 130 nM |  |  | COc1ccc(-c2[nH]nc3c2C(=O)c2c(NC(=O)NNC(N)=O)cccc2-3)cc1 |
| 10 nM |  | 10 nM | COc1ccc(C(=O)NNC(=O)Nc2cccc3c2C(=O)c2c(-c4ccc(OC)cc4)n[nH]c2-3)cc1 |
| 30 nM |  | 20 nM | COc1ccc(-c2[nH]nc3c2C(=O)c2c(NC(=O)NNC(=O)Cc4ccccc4)cccc2-3)cc1 |
| 30 nM |  | 50 nM | COc1ccc(-c2[nH]nc3c2C(=O)c2c(NC(=O)NNC(C)=O)cccc2-3)cc1 |
| 10 nM | 40 nM |  | COc1ccc(-c2[nH]nc3c2C(=O)c2c(NC(=O)NNC(=O)c4ccccc4OC)cccc2-3)cc1 |
|  | 1100 nM | 5 nM | COc1ccc(-c2[nH]nc3c2C(=O)c2c(NC(=O)NNC(=O)c4ccc(O)cc4)cccc2-3)cc1 |
| 30 nM | 120 nM | 10 nM | COc1ccc(-c2[nH]nc3c2C(=O)c2c(NC(=O)NNC(=O)c4ccc5ccccc5c4)cccc2-3)cc1 |
| 20 nM |  | 7 nM | COc1ccc(-c2[nH]nc3c2C(=O)c2c(NC(=O)NNC(=O)c4cc(OC)c(OC)c(OC)c4)cccc2-3)cc1 |
| 20 nM | 140 nM |  | COc1ccc(-c2[nH]nc3c2C(=O)c2c(NC(=O)NNC(=O)c4ccc(C)cc4)cccc2-3)cc1 |
| 240 nM |  | 400 nM | COc1ccc(-c2[nH]nc3c2C(=O)c2c(NC=O)cccc2-3)cc1 |
| 20 nM |  | 10 nM | COc1ccc(-c2[nH]nc3c2C(=O)c2c(NC(=O)NNC(=O)c4cccc([N+](=O)[O-])c4)cccc2-3)cc1 |
| 10 nM |  | 7 nM | COc1ccc(-c2[nH]nc3c2C(=O)c2c(NC(=O)NNC(=O)c4cccc(C)c4)cccc2-3)cc1 |
| 20 nM |  | 7 nM | COc1ccc(-c2[nH]nc3c2C(=O)c2c(NC(=O)NNC(=O)c4ccc(O)c(N)c4)cccc2-3)cc1 |
| 10 nM |  | 9 nM | COc1ccc(-c2[nH]nc3c2C(=O)c2c(NC(=O)NNC(=O)CCc4ccc(O)cc4)cccc2-3)cc1 |
| 10 nM |  | 6.5 nM | COc1ccc(-c2[nH]nc3c2C(=O)c2c(NC(=O)NNC(=O)C(C)C)cccc2-3)cc1 |
| 10 nM | 30 nM | 7 nM | COc1ccc(-c2[nH]nc3c2C(=O)c2c(NC(=O)NNC(=O)c4ccccc4)cccc2-3)cc1 |
| 10 nM | 70 nM | 10 nM | COc1ccc(-c2[nH]nc3c2C(=O)c2c(NC(=O)NNC(=O)c4ccc(N)cc4)cccc2-3)cc1 |
| 10 nM | 280 nM |  | COc1ccc(-c2[nH]nc3c2C(=O)c2c(NC(=O)NNC(=O)Nc4ccccc4)cccc2-3)cc1 |
| 50 nM |  |  | COc1ccc(-c2[nH]nc3c2C(=O)c2c(NC(=O)NNC(=O)c4cccc5ccccc45)cccc2-3)cc1 |
